# Source: patent US11236129B2, “IL-17A binding peptides and medical uses thereof” (Dompe' Farmaceutici S.P.A., priority 2018, dated 2022)
# Residues, ends and D or L forms follow the SMILES beside them.
# Assays:
# [1] = Isoelectric point, log D and log P (SiriusT3); type: physicochemical; settings: for IP (isoelectric point): 25±1° C., 0.15 M KCl; for logD: pH 7.4, pH 7.4, octanol/ISA water, read-out: Log D (7.4); for logP: octanol/ISA water, read-out: logP
# [2] = target: IL-17RA/IL17RC dimerization induced by IL-17A (Homo sapiens, UniProt Q16552); assay: IL-17RA/IL17RC dimerization assay in response to IL-17A (PathHunter Cytokine Receptor Assay); type: cell-based; settings: IL-17A at EC80; read-out: IC50 in IL-17RA/IL7RC dimerization assay
# Chain of IL-17RA/IL17RC dimerization induced by IL-17A (Q16552 24-155): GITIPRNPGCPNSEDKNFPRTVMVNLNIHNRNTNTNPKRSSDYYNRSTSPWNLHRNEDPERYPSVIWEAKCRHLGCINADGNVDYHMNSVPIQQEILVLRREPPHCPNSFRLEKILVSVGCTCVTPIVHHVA
# How it was run: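 Receptor dimerization was read as chemiluminescence from complemented β-galactosidase after IL-17A at EC80 concentration for 6–16 h at 37 °C. Peptides were added 60 min before agonist, at 37 °C or room temperature, with 1% vehicle. Percent inhibition used the EC80-stimulated and vehicle wells as references.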
# [3] = type: physicochemical; settings: pH 7.8
# How it was run: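 Peptides dissolved in phosphate buffer pH 7.8 as 10 mM stocks (more dilute for less soluble ones) and stored at 25 °C. Content measured by reversed-phase UHPLC (C18, 0.5% formic acid water/acetonitrile gradient, DAD 220-400 nm, ESI-MS ion trap) after 1:100 dilution to 100 μM, against 100 μM standards, at T0, 3 days and 1 week.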
IP (isoelectric point) [1],logD [1],IC50 [2] [nM],solubility [3] [mM],logP [1],SMILES
12.96,-3.89,< 1000,≥ 0.1,,CC[C@H](C)[C@H](NC(=O)[C@H](Cc1c[nH]c2ccccc12)NC(=O)[C@H](CCC(=O)O)NC(=O)[C@H](Cc1ccc(O)cc1)NC(=O)[C@H](CC(C)C)NC(=O)[C@H](CC(=O)O)NC(=O)[C@H](C)NC(=O)[C@@H]1CCCN1C(=O)[C@@H](NC(=O)[C@@H](NC(=O)[C@@H](NC(=O)[C@H](CCSC)NC(=O)[C@@H](NC(C)=O)C(C)C)C(C)C)[C@@H](C)O)[C@@H](C)CC)C(=O)N[C@@H](CCC(=O)O)C(=O)N[C@@H](CCC(=O)O)C(=O)N[C@@H](CCCNC(=N)N)C(=O)N[C@@H](CCCNC(=N)N)C(=O)N[C@@H](CCCNC(=N)N)C(=O)N[C@@H](CCCNC(=N)N)C(=O)N[C@@H](CCCNC(=N)N)C(=O)N[C@@H](CCCNC(=N)N)C(=O)N[C@@H](CCCNC(=N)N)C(=O)N[C@@H](CCCNC(=N)N)C(N)=O [SEQ ID NO: 30] (Ac-VMVTIPADLYEWIEERRRRRRRR-NH2)
12.5,-3.59,< 1000,> 10,-4.9,CC[C@H](C)[C@H](NC(=O)[C@H](Cc1c[nH]c2ccccc12)NC(=O)[C@H](CCC(=O)O)NC(=O)[C@H](Cc1ccc(O)cc1)NC(=O)[C@H](CC(C)C)NC(=O)[C@H](CC(=O)O)NC(=O)[C@H](C)NC(=O)[C@@H]1CCCN1C(=O)[C@@H](NC(=O)[C@@H](NC(=O)[C@@H](NC(=O)[C@H](CCSC)NC(=O)[C@@H](NC(=O)[C@H](C)NC(=O)[C@H](CCCCN)NC(=O)[C@H](C)NC(=O)[C@H](C)NC(=O)[C@H](CCCCN)NC(=O)[C@H](CCCCN)NC(=O)[C@H](CCCNC(=N)N)NC(=O)[C@H](C)NC(C)=O)C(C)C)C(C)C)[C@@H](C)O)[C@@H](C)CC)C(=O)N[C@@H](CCC(=O)O)C(=O)N[C@@H](CCC(=O)O)C(N)=O [SEQ ID NO: 31] (Ac-ARKKAAKAVMVTIPADLYEWIEE-NH2)
,-3.59,< 1000,< 0.05,,CC[C@H](C)[C@H](NC(=O)[C@H](Cc1c[nH]c2ccccc12)NC(=O)[C@H](CCC(=O)O)NC(=O)[C@H](Cc1ccc(O)cc1)NC(=O)[C@H](CC(C)C)NC(=O)[C@H](CC(=O)O)NC(=O)[C@H](C)NC(=O)[C@@H]1CCCN1C(=O)[C@@H](NC(=O)[C@@H](NC(=O)[C@@H](NC(=O)[C@H](CCSC)NC(=O)[C@@H](NC(=O)[C@H](CCC(N)=O)NC(=O)[C@H](CO)NC(=O)[C@H](Cc1c[nH]c2ccccc12)NC(=O)[C@H](CCC(=O)O)NC(=O)[C@@H](NC(=O)[C@H](Cc1c[nH]c2ccccc12)NC(=O)[C@H](Cc1c[nH]c2ccccc12)NC(=O)[C@@H](NC(=O)CNC(=O)CNC(C)=O)[C@@H](C)O)[C@@H](C)O)C(C)C)C(C)C)[C@@H](C)O)[C@@H](C)CC)C(=O)N[C@@H](CCC(=O)O)C(=O)N[C@@H](CCC(=O)O)C(N)=O [SEQ ID NO: 32] (Ac-GGTWWTEWSQVMVTIPADLYEWIEE-NH2)
4.46,-1.06,< 1000,≥ 0.1,1.99,CC[C@H](C)[C@H](NC(=O)[C@H](Cc1c[nH]c2ccccc12)NC(=O)[C@H](CCC(=O)O)NC(=O)[C@H](Cc1ccc(O)cc1)NC(=O)[C@H](CC(C)C)NC(=O)[C@H](CC(=O)O)NC(=O)[C@H](C)NC(=O)[C@@H]1CCCN1C(=O)[C@@H](NC(=O)[C@@H](NC(=O)[C@@H](NC(=O)[C@H](CCSC)NC(=O)[C@@H](NC(=O)[C@H](Cc1c[nH]c2ccccc12)NC(=O)[C@@H](NC(=O)[C@H](CCC(=O)O)NC(=O)[C@H](Cc1c[nH]c2ccccc12)NC(=O)[C@H](Cc1c[nH]c2ccccc12)NC(=O)[C@@H](NC(=O)[C@H](CCC(=O)O)NC(=O)[C@H](CCCCN)NC(=O)CNC(=O)CNC(C)=O)[C@@H](C)O)[C@@H](C)O)C(C)C)C(C)C)[C@@H](C)O)[C@@H](C)CC)C(=O)N[C@@H](CCC(=O)O)C(=O)N[C@@H](CCC(=O)O)C(N)=O [SEQ ID NO: 33] (Ac-GGKETWWETWVMVTIPADLYEWIEE-NH2)
5.14,-3.38,< 1000,< 0.05,-5.43,CC[C@H](C)[C@H](NC(=O)[C@H](Cc1c[nH]c2ccccc12)NC(=O)[C@H](CCC(=O)O)NC(=O)[C@H](Cc1ccc(O)cc1)NC(=O)[C@H](CC(C)C)NC(=O)[C@H](CC(=O)O)NC(=O)[C@H](C)NC(=O)[C@@H]1CCCN1C(=O)[C@@H](NC(=O)[C@@H](NC(=O)[C@@H](NC(=O)[C@H](CCSC)NC(=O)[C@@H](NC(=O)CNC(=O)[C@H](Cc1c[nH]c2ccccc12)NC(=O)CNC(=O)[C@@H]1CCCN1C(=O)[C@@H](NC(C)=O)C(C)C)C(C)C)C(C)C)[C@@H](C)O)[C@@H](C)CC)C(=O)N[C@@H](CCC(=O)O)C(=O)N[C@@H](CCC(=O)O)C(N)=O [SEQ ID NO: 34] (Ac-VPGWGVMVTIPADLYEWIEE-NH2)
5.14,-3.52,< 1000,> 10,-5.43,CC[C@H](C)[C@H](NC(=O)[C@H](Cc1c[nH]c2ccccc12)NC(=O)[C@H](CCC(=O)O)NC(=O)[C@H](Cc1ccc(O)cc1)NC(=O)[C@H](CC(C)C)NC(=O)[C@H](CC(=O)O)NC(=O)[C@H](C)NC(=O)[C@@H]1CCCN1C(=O)[C@@H](NC(=O)[C@@H](NC(=O)[C@@H](NC(=O)[C@H](CCSC)NC(=O)[C@@H](NC(=O)CNC(=O)[C@H](C)NC(=O)CNC(=O)[C@@H]1CCCN1C(=O)[C@@H](NC(C)=O)C(C)C)C(C)C)C(C)C)[C@@H](C)O)[C@@H](C)CC)C(=O)N[C@@H](CCC(=O)O)C(=O)N[C@@H](CCC(=O)O)C(N)=O [SEQ ID NO: 35] (Ac-VPGAGVMVTIPADLYEWIEE-NH2)
8.13,-1.24,< 1000,≥ 0.1,-1.09,CC[C@H](C)[C@H](NC(=O)[C@H](Cc1c[nH]c2ccccc12)NC(=O)[C@H](CCC(=O)O)NC(=O)[C@H](Cc1ccc(O)cc1)NC(=O)[C@H](CC(C)C)NC(=O)[C@H](CC(=O)O)NC(=O)[C@H](C)NC(=O)[C@@H]1CCCN1C(=O)[C@@H](NC(=O)[C@@H](NC(=O)[C@@H](NC(=O)[C@H](CCSC)NC(=O)[C@@H](NC(=O)CNC(=O)[C@H](CCCCN)NC(=O)CNC(=O)[C@@H]1CCCN1C(=O)[C@@H](NC(C)=O)C(C)C)C(C)C)C(C)C)[C@@H](C)O)[C@@H](C)CC)C(=O)N[C@@H](CCC(=O)O)C(=O)N[C@@H](CCC(=O)O)C(N)=O [SEQ ID NO: 36] (Ac-VPGKGVMVTIPADLYEWIEE-NH2)
5.14,-3.9,< 200,> 10,,CC[C@H](C)[C@H](NC(=O)[C@H](Cc1c[nH]c2ccccc12)NC(=O)[C@H](CCC(=O)O)NC(=O)[C@H](Cc1ccc(O)cc1)NC(=O)[C@H](CC(C)C)NC(=O)[C@H](CC(=O)O)NC(=O)[C@H](C)NC(=O)[C@@H]1CCCN1C(=O)[C@@H](NC(=O)[C@@H](NC(=O)[C@@H](NC(=O)[C@H](CCSC)NC(=O)[C@@H](NC(C)=O)C(C)C)C(C)C)[C@@H](C)O)[C@@H](C)CC)C(=O)N[C@@H](CCC(=O)O)C(=O)N[C@@H](CCC(=O)O)C(=O)N[C@H](C(=O)N1CCC[C@H]1C(=O)NCC(=O)N[C@@H](C)C(=O)NCC(=O)N[C@H](C(=O)N1CCC[C@H]1C(=O)NCC(=O)N[C@@H](C)C(=O)NCC(N)=O)C(C)C)C(C)C [SEQ ID NO: 37] (Ac-VMVTIPADLYEWIEEVPGAGVPGAG-NH2)
4.2,-2.86,< 200,> 10,-5.36,CC[C@H](C)[C@H](NC(=O)[C@H](Cc1c[nH]c2ccccc12)NC(=O)[C@H](CCC(=O)O)NC(=O)[C@H](Cc1ccc(O)cc1)NC(=O)[C@H](CC(C)C)NC(=O)[C@H](CC(=O)O)NC(=O)[C@H](C)NC(=O)[C@@H]1CCCN1C(=O)[C@@H](NC(=O)[C@@H](NC(=O)[C@@H](NC(=O)[C@H](CCSC)NC(=O)[C@@H](NC(=O)CNC(=O)[C@H](CC(=O)O)NC(=O)CNC(=O)[C@@H]1CCCN1C(=O)[C@@H](NC(C)=O)C(C)C)C(C)C)C(C)C)[C@@H](C)O)[C@@H](C)CC)C(=O)N[C@@H](CCC(=O)O)C(=O)N[C@@H](CCC(=O)O)C(N)=O [SEQ ID NO: 39] (Ac-VPGDGVMVTIPADLYEWIEE-NH2)
4.21,-3.5,< 200,> 10,-4.93,CC[C@H](C)[C@H](NC(=O)[C@H](Cc1c[nH]c2ccccc12)NC(=O)[C@H](CCC(=O)O)NC(=O)[C@H](Cc1ccc(O)cc1)NC(=O)[C@H](CC(C)C)NC(=O)[C@H](CC(=O)O)NC(=O)[C@H](C)NC(=O)[C@@H]1CCCN1C(=O)[C@@H](NC(=O)[C@@H](NC(=O)[C@@H](NC(=O)[C@H](CCSC)NC(=O)[C@@H](NC(C)=O)C(C)C)C(C)C)[C@@H](C)O)[C@@H](C)CC)C(=O)N[C@@H](CCC(=O)O)C(=O)N[C@@H](CCC(=O)O)C(=O)N[C@H](C(=O)N1CCC[C@H]1C(=O)NCC(=O)N[C@@H](CC(=O)O)C(=O)NCC(N)=O)C(C)C [SEQ ID NO: 40] (Ac-VMVTIPADLYEWIEEVPGDG-NH2)
3.54,-1.94,< 1000,> 10,1.24,CC(=O)N[C@@H](CC(=O)O)C(=O)N[C@@H](CC(C)C)C(=O)N[C@@H](CO)C(=O)N[C@@H](C)C(=O)N[C@H](C(=O)N[C@H]1CSSC[C@@H](C(=O)N[C@@H](Cc2c[nH]cn2)C(N)=O)NC(=O)[C@H](CCC(=O)O)NC(=O)[C@@H]2CCCN2C(=O)[C@H](CC(=O)O)NC(=O)[C@H](Cc2c[nH]c3ccccc23)NC(=O)[C@@H]2CCCN2C(=O)[C@H](Cc2ccccc2)NC(=O)[C@H](C)NC(=O)[C@H](Cc2c[nH]c3ccccc23)NC1=O)C(C)C [SEQ ID NO: 41]
